Patent US20220306585A1, “PYRAZOLE DERIVATIVES FOR CONTROLLING ARTHROPODS” (Bayer Animal Health GmbH, priority 2019, published 2022)
In brackets after ≈: the same amount, converted by molar mass.

What was measured:
[1] = Measurement of stability of prodrugs in buffer at pH 7.4; type: physicochemical; details: PBS buffer pH 7.4, 37° C., HPLC peak area, read-out: % Recovery after 24 h (stability at pH 7.4)
Experimental: Preparation of the PBS buffer solution pH 7.4: 90 g sodium chloride, 13.61 g potassium dihydrogen phosphate, 83.35 g 1M aqueous sodium hydroxide were dissolved in water. More water was added up to a total volume of 1 L. This solution was diluted 1:10 with water. Eventually, pH was adjusted to pH 7.4 by the addition of phosphoric acid.
Measurement of Stability of Prodrugs in Buffer at pH 7.4
0.15 mg of the test compound were dissolved in 0.1 mL dimethylsulfoxide and 0.4 mL acetonitrile. For complete dissolution, the HPLC vial with the sample solution was shaken and treated with ultrasound. Then, 1.0 mL of PBS buffer solution pH 7.4 was added and the sample was vortexed. The sample solution was analysed by HPLC (method 8) to determine the amount of the test compound at a particular time over a period of 24 h at 37° C. The peak areas, given as percentage of total area, are used for quantification. In addition, the reaction mixture was analysed by method 9 (HPLC-MS) at the final timepoint.

[2] = Measurement of solubility in buffer at pH 6.5; type: physicochemical; details: aqueous buffer, kinetic from dmso stock; PBS buffer pH 6.5, shaken 24 h at rt, LC-MSMS; read-out: Solubility of example compounds at pH 6.5
Experimental: Measurement of Solubility in Buffer at pH 6.5 2-4 mg of the test compound are dissolved in DMSO to reach a concentration of 50 g/L (solution A). To 10 μL of this solution 960 μL PBS buffer pH 6.5 are added (final concentration: […]); the mixture is shaken for 24 h at rt in a 96 well plate. An aliquot is centrifuged at 42000 rpm für 30 min. The supernatant is diluted with acetonitrile/water (8:2) 1:10 and 1:1000 resp. This diluted samples are analyzed by LC-MSMS. Calibration: 10 μL of solution A are diluted with 823 μL DMSO (final concentration: 600 μg/mL), which is further diluted with acetonitrile/water 8:2 by a factor of 100 (provides solution B). The calibration curve is obtained from solution B by further diluting with acetonitrile/water 8:2 with target concentrations of 1.2-12-60-600 ng/mL and injecting these four solutions for MS measurement. PBS-Puffer: 6.18 g sodium chloride and 3.96 g sodium dihydrogen phosphate are dissolved in 1 L aqua dist., the pH is adjusted to 6.5 with IN sodium hydroxide.

[3] = Degradation of prodrugs and release of parent drug in rat plasma; type: in vitro ADME; details: male, Hannover-Janvier RjHan, rat plasma (Li-heparin), 37° C., percent area of prodrug at t0
Experimental: Measurement of Release of Parent Drug in Rat Plasma 1 mg of the test compound was dissolved in 0.5 mL acetonitrile/dimethylsulfoxide 9:1. For complete dissolution the HPLC vial was shaken and treated with ultrasound. 20 μL of this solution were added to 1 mL of rat plasma (Li-heparin plasma, Hannover-Janvier rat, RjHan male) with vortexing at a temperature of 37° C. Aliquots (100 μL each) were taken at 0.17, 0.5, 1, 1.5, 2 and 4 hours. Each aliquot was transferred to a vial containing 300 μL of acetonitrile/citric acid buffer pH 3 8:2. These solutions were centrifuged at 5000 rpm for 10 minutes. The supernatant was analysed by HPLC (Method 8) to determine the amount of the test compound. In addition, the reaction mixture was analysed by method 9 (HPLC-MS) at the final timepoint. Both decrease of the prodrug concentration and increase of parent drug concentration were monitored. All data is given as percent area of the prodrug at to.

| Structure (SMILES) | recovery at 24 h, 0.1 mg/mL [1] | solubility at 24 h [2] | recovery at 0.17 h, 39 µg/mL [3] | recovery at 0.5 h, 39 µg/mL [3] | recovery at 1 h, 39 µg/mL [3] | recovery at 1.5 h, 39 µg/mL [3] | recovery at 2 h, 39 µg/mL [3] | recovery at 4 h, 39 µg/mL [3] |
| --- | --- | --- | --- | --- | --- | --- | --- | --- |
| Cn1nc(C(F)(F)C(F)(F)F)c(C(F)(F)F)c1-n1cc(-c2ccc(Cl)c(C(=O)N(COC(=O)C3(C(=O)O)CC3)C3(C#N)CC3)c2)cn1 [Example 5, 1-({[{2-Chloro-5-[2′-methyl-5′-(pentafluoroethyl)-4′-(trifluoromethyl)-2′H-[1,3′-bipyrazol]-4-yl]benzoyl}(1-cyanocyclopropyl)amino]methoxy}carbonyl)cyclopropane-1-carboxylic acid] | 71% | 171 µg/mL (≈ 246 µM) |  |  |  |  |  |  |
| Cn1nc(C(F)(F)C(F)(F)F)c(C(F)(F)F)c1-n1cc(-c2ccc(Cl)c(C(=O)N(COC(=O)/C=C/C(=O)O)C3(C#N)CC3)c2)cn1 [Example 7, (2E)-4-{[{2-Chloro-5-[2′-methyl-5′-(pentafluoroethyl)-4′-(trifluoromethyl)-2′H-[1,3′-bipyrazol]-4-yl]benzoyl}(1-cyanocyclopropyl)amino]methoxy}-4-oxobut-2-enoic acid] | 96% |  | 84% | 58% | 26% | 10% | 4% | 0% |
| Cn1nc(C(F)(F)C(F)(F)F)c(C(F)(F)F)c1-n1cc(-c2ccc(Cl)c(C(=O)N(COC(=O)c3ccc(C(=O)O)cc3)C3(C#N)CC3)c2)cn1 [Example 10, 4-({[{2-Chloro-5-[2′-methyl-5′-(pentafluoroethyl)-4′-(trifluoromethyl)-2′H-[1,3′-bipyrazol]-4-yl]benzoyl}(1-cyanocyclopropyl)amino]methoxy}carbonyl)benzoic acid] | 100% | 31 µg/mL (≈ 42.4 µM) | 99% | 98% | 96% | 94% | 92% | 85% |
| Cn1nc(C(F)(F)C(F)(F)F)c(C(F)(F)F)c1-n1cc(-c2ccc(Cl)c(C(=O)N(COC(=O)[C@H]3CC[C@H](C(=O)O)CC3)C3(C#N)CC3)c2)cn1 [Example 12, (trans)-4-({[{2-Chloro-5-[2′-methyl-5′-(pentafluoroethyl)-4′-(trifluoromethyl)-2′H-[1,3′-bipyrazol]-4-yl]benzoyl}(1-cyanocyclopropyl)amino]methoxy}carbonyl)cyclohexane-1-carboxylic acid] | 100% | 46 µg/mL (≈ 62.4 µM) | 91% | 70% | 49% | 33% | 22% | 0% |
| CC(C)(CC(=O)OCN(C(=O)c1cc(-c2cnn(-c3c(Cl)cc(C(F)(C(F)(F)F)C(F)(F)F)cc3OC(F)(F)F)c2)ccc1Cl)C1(C#N)CC1)C(=O)O [Example 14, 4-{[(2-Chloro-5-{1-[2-chloro-4-(1,1,1,2,3,3,3-heptafluoropropan-2-yl)-6-(trifluoromethoxy)phenyl]-1H-pyrazol-4-yl}benzoyl)(1-cyanocyclopropyl)amino]methoxy}-2,2-dimethyl-4-oxobutanoic acid] | 63% | 5 µg/mL (≈ 6.19 µM) |  |  |  |  |  |  |

Next, values leading:

| recovery at 24 h, 0.1 mg/mL [1] | solubility at 24 h [2] | recovery at 0.17 h, 39 µg/mL [3] | recovery at 0.5 h, 39 µg/mL [3] | recovery at 1 h, 39 µg/mL [3] | recovery at 1.5 h, 39 µg/mL [3] | recovery at 2 h, 39 µg/mL [3] | recovery at 4 h, 39 µg/mL [3] | Structure (SMILES) |
| --- | --- | --- | --- | --- | --- | --- | --- | --- |
| 55% | 71 µg/mL (≈ 99.9 µM) |  |  |  |  |  |  | Cn1nc(C(F)(F)C(F)(F)F)c(C(F)(F)F)c1-n1cc(-c2ccc(Cl)c(C(=O)N(COC(=O)CC(C)(C)C(=O)O)C3(C#N)CC3)c2)cn1 [Example 2, 4-{[{2-Chloro-5-[2′-methyl-5′-(pentafluoroethyl)-4′-(trifluoromethyl)-2′H-[1,3′-bipyrazol]-4-yl]benzoyl}(1-cyanocyclopropyl)amino]methoxy}-2,2-dimethyl-4-oxobutanoic acid] |
| 90% | 200 µg/mL (≈ 293 µM) |  |  |  |  |  |  | Cn1nc(C(F)(F)C(F)(F)F)c(C(F)(F)F)c1-n1cc(-c2ccc(Cl)c(C(=O)N(COC(=O)CCC(=O)O)C3(C#N)CC3)c2)cn1 [Example 6, 4-{[{2-Chloro-5-[2′-methyl-5′-(pentafluoroethyl)-4′-(trifluoromethyl)-2′H-[1,3′-bipyrazol]-4-yl]benzoyl}(1-cyanocyclopropyl)amino]methoxy}-4-oxobutanoic acid] |
